Experimental data taken from patent US20240409543A1, “PYRROLOPYRAZOLE SPIRO COMPOUND” (CHIA TAI TIANQING PHARMACEUTICAL GROUP CO., LTD., priority 2021, published 2024).

How the values were obtained:
SHP2 = target: T1, SHP2 (Homo sapiens, UniProt Q06124); test: SHP2 in-vitro enzymology experiment (Homogeneous Full Length SHP-2 Assay Kit, DiFMUP substrate); assay type: biochemical; settings: 60 min pre-incubation, 30 min reaction at 25° C.
T1 construct: Homogeneous Full Length SHP-2 Assay Kit (purchased from BPS Bioscience); purchased BPS Bioscience
T1 sequence (Q06124 1-593): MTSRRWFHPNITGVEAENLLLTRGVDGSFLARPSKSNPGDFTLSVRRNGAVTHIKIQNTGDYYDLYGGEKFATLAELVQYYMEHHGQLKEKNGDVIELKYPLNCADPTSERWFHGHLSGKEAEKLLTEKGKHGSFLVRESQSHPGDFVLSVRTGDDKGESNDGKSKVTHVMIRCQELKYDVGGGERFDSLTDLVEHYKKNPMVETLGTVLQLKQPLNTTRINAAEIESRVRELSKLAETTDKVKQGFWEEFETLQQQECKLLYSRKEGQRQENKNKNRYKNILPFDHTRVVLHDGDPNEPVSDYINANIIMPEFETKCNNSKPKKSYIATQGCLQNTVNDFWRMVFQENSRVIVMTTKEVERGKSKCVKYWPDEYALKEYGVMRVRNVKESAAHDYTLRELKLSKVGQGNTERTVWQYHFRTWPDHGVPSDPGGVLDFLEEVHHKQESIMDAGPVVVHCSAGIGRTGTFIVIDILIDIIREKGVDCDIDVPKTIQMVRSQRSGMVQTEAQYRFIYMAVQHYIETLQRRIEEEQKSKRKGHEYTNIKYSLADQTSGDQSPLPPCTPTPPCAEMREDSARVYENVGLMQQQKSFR
Method: Experimental materials: Homogeneous Full Length SHP-2 Assay Kit (purchased from BPS Bioscience) and NIVO multimode microplate reader.
Preparation of 1× buffer (ready-to-use): 5× buffer was diluted with deionized water to give 1× buffer, which was then placed on ice for later use.
Each test compound was diluted with 100% DMSO to 100 μM as the first concentration, and then diluted in a 4-fold gradient to the 8th concentration (i.e., from 100 μM to 6.1 nM) using a multi-channel pipette. Each gradient of the test compound was diluted with 1× buffer to prepare a working solution with 10% DMSO. The resulting solution was then added to the corresponding wells of a plate at 5 μL/well, with duplicate wells set up. The plate was then centrifuged at 1000 rpm for 1 min.
18 μL of a prepared reaction mixed solution (containing 12.25 μL of deionized water, 5 μL of 5× buffer; 0.25 μL of SHP-2 substrate polypeptide (100 μM), and 0.5 μL of DTT (250 mM)) was added to each well. The plate was then centrifuged at 1000 rpm for 1 min.
An SHP-2 enzyme was diluted to 0.1 ng/μL with 1× buffer. The resulting solution was added to the corresponding wells at 2 μL/well, and 2 μL of 1× buffer and […] were added to each negative control well. This step was performed on ice. The reaction system was then incubated at 25° C. for 60 min for compound pre-incubation.
After the compound pre-incubation was completed, 25 μL of a substrate working solution (containing 19.45 μL of deionized water, 5 μL of 5× buffer; 0.5 μL of DTT (250 mM), and 0.05 μL of SHP-2 Substrate (DiFMUP) (10 mM)) was added to each well, and the reaction system was allowed to react at 25° C. for 30 min. At that time, the final concentration gradient of the compound ranged from 1 μM to 0.061 nM. After the reaction was completed, the fluorescence values were read using the NIVO multimode microplate reader, with an excitation wavelength of 360 nm and an emission wavelength of 460 nm.
Detection of compound background reading values: Each gradient of the test compound diluted with 100% DMSO was added to a new compound plate at 5 μL/well, and then 1× buffer was added at 45 μL/well to achieve a 10-fold dilution to prepare a working solution with 10% DMSO. Next, the compound working solution was added to the detection plate at 5 μL/well, and then 1× buffer was added at 45 μL/well to achieve another 10-fold dilution, bringing the final concentration of DMSO to 1%. The plate was then centrifuged at 1000 rpm for 1 min. The fluorescence values were read using the multimode microplate reader, with an excitation wavelength of 360 nm and an emission wavelength of 460 nm.
The original data were converted to inhibition rates and the IC50 values were obtained by curve fitting using a four-parameter method.

[1] = system: MiaPaCa-2 cells (MIAPACA2_PANCREAS); test: Anti-proliferation experiment on tumor cells with KRAS mutations, MiaPaCa-2 (3D CellTiter-Glo); assay type: cell-based; settings: Homo sapiens, MIA PaCa-2, 72 h, 3 days incubation with compound, ultra-low attachment plate
Excerpt: Cell culture medium, penicillin/streptomycin antibiotics purchased from Wisent, and fetal bovine serum purchased from Biosera; 3D CellTiter-Glo (chemiluminescence detection reagent for cell viability) reagent purchased from Promega; Cell lines purchased from Nanjing Cobioer Biosciences Co., Ltd. and Wuhan Procell Life Science & Technology Co., Ltd; and Envision multimode microplate reader (PerkinElmer).
Different types of tumor cells were each seeded in an ultra-low attachment 96-well U-bottom plate, with 80 μL of cell suspension per well. The cell plate was incubated in a CO2 incubator overnight.
Each test compound was diluted in a 5-fold gradient to the 9th concentration (i.e., from 2 mM to 5.12 nM or from 200 μM to 0.512 nM) using a multi-channel pipette, with duplicate wells set up. 78 μL of medium was added to an intermediate plate, and the serially diluted compound was transferred to the corresponding wells of the intermediate plate at 2 μL/well. The mixture was mixed well and then transferred to the cell plate at 20 µL/well. The concentration of the compound transferred to the cell plate ranged from 10 μM to 0.0256 nM or from 1 μM to 0.00256 nM. The cell plate was then incubated in a CO2 incubator for 3-6 days.
The chemiluminescence detection reagent for cell viability was added to the cell plate at 100 μL/well, and the luminescence signals were stabilized by incubation for 10 min at room temperature. Readings were taken using the multimode microplate reader.
The original data were converted to inhibition rates and then the IC50 values were obtained by curve fitting using a four-parameter method (obtained from the “log(inhibitor) vs. response—Variable slope” model in GraphPad Prism). Table 2 illustrates the inhibitory activity of the compounds disclosed herein against the proliferation of different types of tumor cells.

| IC50 (SHP2) | IC50 [1] | Compound |
| --- | --- | --- |
| 2.87 nM | 24.4 nM | CNc1nccc(Sc2nc(CO)c(N3CCC4(CC3)Cn3nccc3C4N)nc2C)c1Cl (centres unmarked) [Compound 2] |
| 1.73 nM | 22.6 nM | Cc1nc(N2CCC3(CC2)Cn2nccc2C3N)c(CO)nc1Sc1ccnc(N)c1Cl (centres unmarked) [Compound 1] |
| 2.14 nM | 56.9 nM | Cc1nc(N2CCC3(CC2)Cn2nccc2C3N)c(CO)nc1Sc1cccnc1C(F)(F)F (centres unmarked) [Compound 4] |
| 3.15 nM | 62.1 nM | Cc1nc(N2CCC3(CC2)Cn2nccc2C3N)c(CO)nc1Sc1ccnc(N)c1F (centres unmarked) [Compound 6] |
